According to US3974137A, “Process for the preparation of 1-[L-(-)-γ-amino-α-hydroxybutyryl]-kanamycin A (RD-1341A)” (priority 1974, dated 1976):
In brackets after ≈: the same amount, converted by molar mass. Several values for one entry are separate records, joined by “and”; a condition that tells them apart may be missing. Equal values may be shown once. Where a name gives a salt, the structure may show the parent alone. Read-outs that look alike come from different tables or passages of the source.

Key:
[1] = Bioassay of column fractions (plate assays); type: cell-based; conditions: pooled column fractions; BB-K8: average of 4 plate assays, ± standard deviation
Text: *Average of 4 plate assays, ± standard deviation.

[2] = test system: Staphylococcus aureus A-9537; experiment: CD50 in lethally infected mice; type: in vivo, Staphylococcus aureus (infected mice); conditions: for ED50: Staphylococcus aureus, A9537, sc, mice, subcutaneous, × 2 treatments (1 and 4 hours post-infection), test number 1, read-out: CD50 (curative dose, 50%); for effectiveness in infected mice (words): kanamycin A-sensitive strain
Description: (§1) ^b CD50 =curative dose, 50% (mg./kg./treated × number of
(§2) treatments). Mice were treated subcutaneously at 1 and 4 hours
(§3) post-infection when 2 treatment were administered and at 0, 2, 4 and 6
(§4) hours post-infection when 4 treatment weree given. Other aspects of the
(§5) test were carried out as described by Price et al. (J. of Antibiotics

Escherichia coli A-20520 [3] = experiment: CD50 in lethally infected mice; type: in vivo, Escherichia coli (infected mice); conditions: for ED50: Escherichia coli, A20520, sc, read-out: CD50 (curative dose, 50%); for effectiveness in infected mice (words): kanamycin-resistant strain
Description: as §1, §2, §3, §4, §5

Escherichia coli A-15119 [4] = experiment: CD50 in lethally infected mice; type: in vivo, Escherichia coli (infected mice); conditions: for ED50: Escherichia coli, A15119, sc, mice, subcutaneous, × 2 treatments (1 and 4 hours post-infection), test number 1, read-out: CD50 (curative dose, 50%); for effectiveness in infected mice (words): kanamycin A-sensitive strain
Description: as §1, §2, §3, §4, §5

[5] = test system: Staphylococcus aureus A-9537; experiment: MIC, in vitro (Table 3); type: cell-based
Text: (§6) ^a MIC =minimum inhibitory concentration (μg./ml.). Tests conducte
(§7) as described by Chisholm et al., (Antimicrob. Agents and
(§8) Chemotherapy-1969, p. 244, 1970) using Mueller-Hinten agar as the test

Escherichia coli A-20520 [6] = experiment: MIC, in vitro (Table 3); type: cell-based
Text: as §6, §7, §8

Escherichia coli A-15119 [7] = experiment: MIC, in vitro (Table 3); type: cell-based; conditions: A15119, Mueller-Hinten agar, test number 1
Text: as §6, §7, §8

B. subtilis = experiment: Relative potency, agar plate; type: cell-based; conditions: standard: kanamycin A free base
Description: Compound IV, as recovered from this process, is identical with authentic product obtained by the method described in co-pending application, Ser. No. 221,378. M.p. 194° (dec.) [α]D^21 +85° (c=2, H2 O). […] (standard: kanamycin A free base).

[8] = test system: gram-positive and gram-negative bacteria; experiment: Antibacterial activity (MIC), overall comparison with kanamycin A; type: cell-based; conditions: in words
Text: Illustrated below are two tables showing the minimal inhibitory concentrations (MIC's) of kanamycin A and compound IVa (BB-K8) against a variety of gram-positive and gram-negative bacteria as obtained by the Steers agar-dilution method (Table I) and the two-fold dilution method (Table 2). Mueller-Hinton Agar Medium was used in the study of Table 1 and Heart Infusion Broth was used in the study of Table 2.

[9] = Hygroscopicity / water uptake on storage in air; type: physicochemical
[10] = mice, subcutaneous, × 4 treatments (0, 2, 4 and 6 hours post-infection), test number 2

In the case of `NCC1OC(OC2C(N)CC(N)C(OC3OC(CO)C(O)C(N)C3O)C2O)C(O)C(O)C1O` (centres unmarked) [Kanamycin A], the Bioassay [1] is reported as 809, the ED50 [2] is reported as 0.5 mg/kg and the “effectiveness in infected mice (words)” value [2] is reported as “equally effective”. The ED50 (Escherichia coli A-20520 [3]) was 200 mg/kg, the “effectiveness in infected mice (words)” value (Escherichia coli A-20520 [3]) was “not very effective in vivo” and the “CD50 (curative dose, 50%)” value (Escherichia coli A-20520 [3]; [10]) was 200 mg./kg./treated × number of tr. For the same compound, the ED50 (Escherichia coli A-15119 [4]) was 4 mg/kg, the “effectiveness in infected mice (words)” value (Escherichia coli A-15119 [4]) was “equally effective” and the MIC ([5]; A9537) was 2 µg/mL (≈ 4.13 µM). The MIC (Escherichia coli A-20520 [6]; A20520) was 125 µg/mL (≈ 258 µM) and the MIC (Escherichia coli A-15119 [7]) was 4 µg/mL (≈ 8.26 µM).

In the case of `NCC[C@H](O)C(=O)N[C@@H]1C[C@H](N)[C@@H](O[C@H]2O[C@H](CN)[C@@H](O)[C@H](O)[C@H]2O)[C@H](O)[C@H]1O[C@H]1O[C@H](CO)[C@@H](O)[C@H](N)[C@H]1O` [Compound IV, 1-[L-(-)-γ-amino-α-hydroxybutyryl]-kanamycin A], the “Relative potency against B. subtilis” value (B. subtilis) is reported as 960 µg/mg, the Bioassay [1] is reported as 786±101 and the ED50 [2] is reported as 2 mg/kg. For the same compound, the “effectiveness in infected mice (words)” value [2] was “equally effective”, the “effectiveness in infected mice (words)” value ([2]; listed as compound IV) was “slightly less active than kanamycin A” and the ED50 (Escherichia coli A-20520 [3]; mice, subcutaneous, × 2 treatments (1 and 4 hours post-infection), test number 1) was 66 mg/kg. For the same compound, the ED50 (Escherichia coli A-20520 [3]; [10]) was 5 mg/kg, the “effectiveness in infected mice (words)” value (Escherichia coli A-20520 [3]) was “marked protective action” and the “times more active in 4-treatment regimen rather than in 2-treatment one” value (Escherichia coli A-20520 [3]; mice, 4-treatment vs 2-treatment regimen) was “approximately 10 times”. The ED50 (Escherichia coli A-15119 [4]) was 2 mg/kg, the “effectiveness in infected mice (words)” value (Escherichia coli A-15119 [4]) was “equally effective” and the MIC ([5]; A9537, Mueller-Hinten agar, test number 1, read-out: MIC) was 1 µg/mL (≈ 1.71 µM). The MIC (Escherichia coli A-20520 [6]; A20520, Mueller-Hinten agar, test number 1, read-out: MIC) was 2 µg/mL (≈ 3.42 µM), the MIC (Escherichia coli A-15119 [7]) was 2 µg/mL (≈ 3.42 µM) and the “antibacterial activity compared with kanamycin A” value [8] was “excellent antibacterial activity that appears superior to kanamycin A itself”. The “antibacterial activity compared with kanamycin A” value ([8]; listed as compound IV) was “superior to kanamycin A in activity, particularly against kanamycin A resistant organisms”.

In the case of `NCC[C@H](O)C(=O)N[C@@H]1C[C@H](N)[C@@H](O[C@H]2O[C@H](CN)[C@@H](O)[C@H](O)[C@H]2O)[C@H](O)[C@H]1O[C@H]1O[C@H](CO)[C@@H](O)[C@H](N)[C@H]1O` [BB-K8^. 2H2 SO4, Disulfate Salt of 1-[L-(-)-γ-amino-α-hydroxybutyryl]-kanamycin A], the “water content after storage in air” value ([9]; Karl Fisher, in air at room temperature for 18 hours) is reported as 9.55% and 9.89% and the hygroscopicity ([9]; disulfate salt) is reported as “hygroscopic but not deliquescent”.
